Columns and labels:
[1] = test system: Tetranychus urticae Koch (two spotted spider mite); experiment: Control effect test for Tetranychus urticae Koch (two spotted spider mite); assay type: in vivo; settings: active ingredient concentration 4 ppm, soybean seedlings with 35 female adults immersed, 25° C., after 13 days, no replication; for pest or weed control at 4 ppm: Tetranychus urticae, 312 h
Procedure: A wettable powder prepared based on Formulation Example 2 was diluted with water into an active ingredient concentration of 4 ppm. In the solution were immersed soybean seedlings which had been inoculated with 35 female adults of two spotted spider mite. The soybean seedlings were dried in the air and placed in a thermostat of 25° C. After 13 days, the number of living female adults was examined and the control value of the active ingredient was determined using the calculation formula of the following Mathematical Expression 1. This test was conducted with no replication. Control value=100−[(number of living female adults after 13 days, in treated seedlings)/(number of living female adults after 13 days, in non-treated seedlings)]×100 [Mathematical Expression 1]
Tests similar to the above were conducted using, as comparative compounds, compound Nos. 22 and 23 described in JP-A-1975-29744, compound Nos. 3, 4, 5, 6 described in JP-A-1976-19121 and compound Nos. 18, 19 and 36 described in JP-A-1988-41451. The structures of these comparative compounds are as follows.

[2] = test system: Nilaparvata lugens Stál (brown rice planthopper); experiment: Insecticidal activity test for Nilaparvata lugens Stál (brown rice planthopper); assay type: in vivo; settings: active ingredient concentration 100 ppm, sprouting unhulled rice immersed, 10 3-instar larvae, 25° C., after 6 days, no replication; for mortality at 100 ppm: Nilaparvata lugens, 144 h
Procedure: A wettable powder prepared based on Formulation Example 2 was diluted with water into an active ingredient concentration of 100 ppm. In the solution was immersed sprouting unhulled rice. They were placed in a 60-ml plastic cup. Thereinto were released 10 3-instar larvae of brown rice planthopper. The cup was covered with a lid and placed in a thermostat of 25° C. After 6 days, the number of living insects was counted and the mortality of insect was determined from the calculation formula of the following Mathematical Expression 2. This test was conducted with no replication. Mortality (%)=100−[(number of living insects after 6 days)/(number of tested insects)]×100 [Mathematical Expression 2]
As in the case of Test Example 1, tests similar to the above were conducted using, as comparative compounds, compound Nos. 22 and 23 described in JP-A-1975-29744, compound Nos. 4, 5, 6 described in JP-A-1976-19121 and compound Nos. 18, 19 and 36 described in JP-A-1988-41451.

Row | SMILES | pest or weed control at 4 ppm [1] [%] | mortality at 100 ppm [2] [%] | control value [1] | mortality [2]
1 | [O-][S+](CC(F)(F)F)c1cc(OCCCCCSC(F)(F)F)c(F)cc1Cl (racemic) [A-0434, 5-trifluoromethylthiopentyl-[4-chloro-2-fluoro-5-(2,2,2-trifluoroethylsulfinyl)phenyl] ether] | ≥ 90 | ≥ 90 | – | –
2 | Cc1cc(F)c(OCCCCC(C)(C)C)cc1SCC(F)(F)F [A-0085, 5,5-dimethylhexyl-[2-fluoro-4-methyl-5-(2,2,2-trifluoroethylthio)phenyl] ether] | ≥ 90 | ≥ 90 | – | –
3 | Cc1cc(F)c(OCCCCC(C)(C)C)cc1[S+]([O-])CC(F)(F)F (stereo not shown) [A-0086, 5,5-dimethylhexyl-[2-fluoro-4-methyl-5-(2,2,2-trifluoroethylsulfinyl)phenyl] ether] | ≥ 90 | ≥ 90 | – | –
4 | Fc1cc(Cl)c(SCC(F)(F)F)cc1OCCCCCSC(F)(F)F [A-0433, 5-trifluoromethylthiopentyl-[4-chloro-2-fluoro-5-(2,2,2-trifluoroethylthio)phenyl] ether] | – | ≥ 90 | – | –
5 | Cc1ccc(OCCCCCSC(F)(F)F)cc1SCC(F)(F)F [A-0438, 5-trifluoromethylthiopentyl-[4-methyl-3-(2,2,2-trifluoroethylthio)phenyl] ether] | ≥ 90 | ≥ 90 | – | –
6 | Cc1ccc(OCCCCCSC(F)(F)F)cc1[S+]([O-])CC(F)(F)F (stereo not shown) [A-0439, 5-trifluoromethylthiopentyl-[4-methyl-3-(2,2,2-trifluoroethylsulfinyl)phenyl] ether] | ≥ 90 | ≥ 90 | – | –
7 | FC(F)(F)CSc1cc(OCCCCCCSC(F)(F)F)c(Cl)cc1Cl [A-0478, 6-trifluoromethylthiohexyl-[2,4-dichloro-5-(2,2,2-trifluoroethylthio)phenyl] ether] | ≥ 90 | – | – | –
8 | [O-][S+](CC(F)(F)F)c1cc(OCCCCCCSC(F)(F)F)c(Cl)cc1Cl (stereo not shown) [A-0479, 6-trifluoromethylthiohexyl-[2,4-dichloro-5-(2,2,2-trifluoroethylsulfinyl)phenyl] ether] | ≥ 90 | – | – | –
9 | Cc1cc(C)c([S+]([O-])CC(F)(F)F)cc1OCCCCCCSC(F)(F)F (stereo not shown) [A-0481, 6-trifluoromethylthiohexyl-[2,4-dimethyl-5-(2,2,2-trifluoroethylsulfinyl)phenyl]ether] | ≥ 90 | – | – | –
10 | [O-][S+](CC(F)(F)F)c1cc(OCCc2ccc(C(F)(F)F)cc2)c(Cl)cc1Cl (stereo not shown) [A-0767, 2-(4-trifluoromethylphenyl)ethyl-[2,4-dichloro-5-(2,2,2-trifluoroethylsulfinyl)phenyl] ether] | ≥ 90 | – | – | –
11 | Cc1cc(C)c([S+]([O-])CC(F)(F)F)cc1OCCc1ccc(OC(F)(F)F)cc1 (stereo not shown) [A-0783, 2-(4′-trifluoromethoxyphenyl)ethyl-[2,4-dimethyl-5-(2,2,2-trifluoroethylsulfinyl)phenyl] ether] | ≥ 90 | – | – | –
12 | Cc1cc(F)c(O)cc1SCC(F)(F)F [C-0001, 2-fluoro-4-methyl-5-(2,2,2-trifluoroethylthio)phenol] | – | ≥ 90 | – | –
13 | C#CCOc1ccc(C)c(SCCC)c1 [compound 3] | – | – | no activity | –
14 | C#CCOc1ccc(C)c([S+]([O-])CCC)c1 (stereo not shown) [compound 4] | – | – | no activity | no activity
15 | CCCSc1cc(OCC=CCl)ccc1C [compound 5] | – | – | no activity | no activity
16 | CCC[S+]([O-])c1cc(OCC=CCl)ccc1C (stereo not shown) [compound 6] | – | – | no activity | no activity
17 | CCCSc1cc(OCc2ccc(Cl)cc2)ccc1C [compound 18] | – | – | no activity | no activity
18 | CCC[S+]([O-])c1cc(OCc2ccc(Cl)cc2)ccc1C (stereo not shown) [compound 19] | – | – | no activity | no activity
19 | CCCCCCOc1ccc(Cl)c(SCCC)c1 [compound 22] | – | – | no activity | no activity
20 | CCCCCCOc1ccc(Cl)c([S+]([O-])CCC)c1 (stereo not shown) [compound 23] | – | – | no activity | no activity
21 | CCCSc1cc(OCCCSCc2ccccc2)ccc1C [compound 36] | – | – | no activity | no activity

Source: patent US10023532B2, “Alkyl phenyl sulfide derivative and pest control agent” (KUMIAI CHEMICAL INDUSTRY CO., LTD., priority 2012, dated 2018)
